# Measured values published in patent US20210254272A1, “TEXTILES HAVING ANTIMICROBIAL PROPERTIES” (Livinguard AG, priority 2015, published 2021).
# Test system: E. coli (ATCC 25922)
# Experiment: AATCC Test Method 100-2012 antibacterial activity of the treated textile, after 25 washes and 12 abrasion cycles, contact time 60 minutes
# Assay type: cell-based
# Procedure: The antibacterial activity of the textile was tested in accordance with AATCC Test Method 100-2012. Prior to the test, the fabric was cut into coupons of 2×4 inches and washed separately 25 times, and exposed to 12 abrasion cycles, as per US EPA protocol 90072PA4 (described further below). The tests were made against E. coli (ATCC 25922). Contact time was 60 minutes, after inoculating with 10^8 CFU per coupon.
substance,measurement,setting,value
polyglucosamine [chitosan],Log reduction of antimicrobial performance of each active ingredient,"exhaust 80 ° C., solution dosage 1% o.w.f, process time 90 min",2.72 Log
same,Log reduction of antimicrobial performance,"pure cotton fabric, exhaust 80° C., 60 min, dosage 0.1% o.w.f",0.63 Log
same,Log reduction of antimicrobial performance,"pure cotton fabric, exhaust 80° C., 60 min, dosage 0.2% o.w.f",1.37 Log
same,Log reduction of antimicrobial performance,"pure cotton fabric, exhaust 80° C., 60 min, dosage 0.5% o.w.f",1.91 Log
same,Log reduction of antimicrobial performance,"pure cotton fabric, exhaust 80° C., 60 min, dosage 0.8% o.w.f",2.21 Log
same,Log reduction of antimicrobial performance,"pure cotton fabric, exhaust 80° C., 60 min, dosage 1.0% o.w.f",2.71 Log
same,Log reduction of antimicrobial performance,"pure cotton, exhaust 80° C., 1% o.w.f, 60 min, curing 180° C., curing dwell time 0.5 min",0.4 Log
same,Log reduction of antimicrobial performance,"pure cotton, exhaust 80° C., 1% o.w.f, 60 min, curing 180° C., curing dwell time 1.0 min",0.8 Log
same,Log reduction of antimicrobial performance,"pure cotton, exhaust 80° C., 1% o.w.f, 60 min, curing 180° C., curing dwell time 1.5 min",1.6 Log
same,Log reduction of antimicrobial performance,"pure cotton, exhaust 80° C., 1% o.w.f, 60 min, curing 180° C., curing dwell time 2.0 min",2.7 Log
same,Log reduction of antimicrobial performance,"pure cotton, exhaust 80° C., 1% o.w.f, 60 min, curing 180° C., curing dwell time 2.5 min",2.3 Log
same,Log reduction of antimicrobial performance,"pure cotton, exhaust 80° C., 1% o.w.f, 60 min, curing 180° C., curing dwell time 3.0 min",1.4 Log
same,Log reduction of antimicrobial performance,"solution dosage 0.10% o.w.f, exhaust temperature 40° C., process time 60 min",0 Log
same,Log reduction of antimicrobial performance,"solution dosage 0.10% o.w.f, exhaust temperature 60° C., process time 60 min",0 Log
same,Log reduction of antimicrobial performance,"solution dosage 0.10% o.w.f, exhaust temperature 65° C., process time 60 min",0 Log
same,Log reduction of antimicrobial performance,"solution dosage 0.10% o.w.f, exhaust temperature 70° C., process time 60 min",0 Log
same,Log reduction of antimicrobial performance,"solution dosage 0.10% o.w.f, exhaust temperature 75° C., process time 60 min",0.23 Log
same,Log reduction of antimicrobial performance,"solution dosage 0.10% o.w.f, exhaust temperature 80° C., process time 60 min",0.57 Log
same,Log reduction of antimicrobial performance,"solution dosage 0.10% o.w.f, exhaust temperature 85° C., process time 60 min",0.67 Log
same,Log reduction of antimicrobial performance,"solution dosage 0.10% o.w.f, exhaust temperature 90° C., process time 60 min",0.67 Log
same,Log reduction of antimicrobial performance,"solution dosage 0.10% o.w.f, exhaust temperature 95° C., process time 60 min",0.67 Log
same,Log reduction of antimicrobial performance,"solution dosage 0.20% o.w.f, exhaust temperature 40° C., process time 60 min",0 Log
same,Log reduction of antimicrobial performance,"solution dosage 0.20% o.w.f, exhaust temperature 60° C., process time 60 min",0 Log
same,Log reduction of antimicrobial performance,"solution dosage 0.20% o.w.f, exhaust temperature 65° C., process time 60 min",0 Log
same,Log reduction of antimicrobial performance,"solution dosage 0.20% o.w.f, exhaust temperature 70° C., process time 60 min",0 Log
same,Log reduction of antimicrobial performance,"solution dosage 0.20% o.w.f, exhaust temperature 75° C., process time 60 min",0.67 Log
same,Log reduction of antimicrobial performance,"solution dosage 0.20% o.w.f, exhaust temperature 80° C., process time 60 min",1.34 Log
same,Log reduction of antimicrobial performance,"solution dosage 0.20% o.w.f, exhaust temperature 85° C., process time 60 min",1.43 Log
same,Log reduction of antimicrobial performance,"solution dosage 0.20% o.w.f, exhaust temperature 90° C., process time 60 min",1.45 Log
same,Log reduction of antimicrobial performance,"solution dosage 0.20% o.w.f, exhaust temperature 95° C., process time 60 min",1.45 Log
same,Log reduction of antimicrobial performance,"solution dosage 0.50% o.w.f, exhaust temperature 40° C., process time 60 min",0 Log
same,Log reduction of antimicrobial performance,"solution dosage 0.50% o.w.f, exhaust temperature 60° C., process time 60 min",0.09 Log
same,Log reduction of antimicrobial performance,"solution dosage 0.50% o.w.f, exhaust temperature 65° C., process time 60 min",0.09 Log
same,Log reduction of antimicrobial performance,"solution dosage 0.50% o.w.f, exhaust temperature 70° C., process time 60 min",0.15 Log
same,Log reduction of antimicrobial performance,"solution dosage 0.50% o.w.f, exhaust temperature 75° C., process time 60 min",1.12 Log
same,Log reduction of antimicrobial performance,"solution dosage 0.50% o.w.f, exhaust temperature 80° C., process time 60 min",1.89 Log
same,Log reduction of antimicrobial performance,"solution dosage 0.50% o.w.f, exhaust temperature 85° C., process time 60 min",1.93 Log
same,Log reduction of antimicrobial performance,"solution dosage 0.50% o.w.f, exhaust temperature 90° C., process time 60 min",1.94 Log
same,Log reduction of antimicrobial performance,"solution dosage 0.50% o.w.f, exhaust temperature 95° C., process time 60 min",1.94 Log
same,Log reduction of antimicrobial performance,"solution dosage 0.80% o.w.f, exhaust temperature 40° C., process time 60 min",0 Log
same,Log reduction of antimicrobial performance,"solution dosage 0.80% o.w.f, exhaust temperature 60° C., process time 60 min",0.15 Log
same,Log reduction of antimicrobial performance,"solution dosage 0.80% o.w.f, exhaust temperature 65° C., process time 60 min",0.15 Log
same,Log reduction of antimicrobial performance,"solution dosage 0.80% o.w.f, exhaust temperature 70° C., process time 60 min",0.21 Log
same,Log reduction of antimicrobial performance,"solution dosage 0.80% o.w.f, exhaust temperature 75° C., process time 60 min",1.23 Log
same,Log reduction of antimicrobial performance,"solution dosage 0.80% o.w.f, exhaust temperature 80° C., process time 60 min",2.11 Log
same,Log reduction of antimicrobial performance,"solution dosage 0.80% o.w.f, exhaust temperature 85° C., process time 60 min",2.34 Log
same,Log reduction of antimicrobial performance,"solution dosage 0.80% o.w.f, exhaust temperature 90° C., process time 60 min",2.37 Log
same,Log reduction of antimicrobial performance,"solution dosage 0.80% o.w.f, exhaust temperature 95° C., process time 60 min",2.37 Log
same,Log reduction of antimicrobial performance,"solution dosage 1.00% o.w.f, exhaust temperature 40° C., process time 60 min",0 Log
same,Log reduction of antimicrobial performance,"solution dosage 1.00% o.w.f, exhaust temperature 60° C., process time 60 min",0.21 Log
same,Log reduction of antimicrobial performance,"solution dosage 1.00% o.w.f, exhaust temperature 65° C., process time 60 min",0.22 Log
same,Log reduction of antimicrobial performance,"solution dosage 1.00% o.w.f, exhaust temperature 70° C., process time 60 min",0.32 Log
same,Log reduction of antimicrobial performance,"solution dosage 1.00% o.w.f, exhaust temperature 75° C., process time 60 min",1.28 Log
same,Log reduction of antimicrobial performance,"solution dosage 1.00% o.w.f, exhaust temperature 80° C., process time 60 min",2.67 Log
same,Log reduction of antimicrobial performance,"solution dosage 1.00% o.w.f, exhaust temperature 85° C., process time 60 min",2.76 Log
same,Log reduction of antimicrobial performance,"solution dosage 1.00% o.w.f, exhaust temperature 90° C., process time 60 min",2.78 Log
same,Log reduction of antimicrobial performance,"solution dosage 1.00% o.w.f, exhaust temperature 95° C., process time 60 min",2.78 Log
